{"source": "paper PMC7764601", "about": "(Molecules, 2020)", "key": {"[1]": {"target": "T1, µ receptor of the rat cerebral cortex (Rattus norvegicus, UniProt P33535)", "T1 construct": "from tissue; host or cells: rat cerebral cortex", "T1 sequence (P33535 whole entry)": "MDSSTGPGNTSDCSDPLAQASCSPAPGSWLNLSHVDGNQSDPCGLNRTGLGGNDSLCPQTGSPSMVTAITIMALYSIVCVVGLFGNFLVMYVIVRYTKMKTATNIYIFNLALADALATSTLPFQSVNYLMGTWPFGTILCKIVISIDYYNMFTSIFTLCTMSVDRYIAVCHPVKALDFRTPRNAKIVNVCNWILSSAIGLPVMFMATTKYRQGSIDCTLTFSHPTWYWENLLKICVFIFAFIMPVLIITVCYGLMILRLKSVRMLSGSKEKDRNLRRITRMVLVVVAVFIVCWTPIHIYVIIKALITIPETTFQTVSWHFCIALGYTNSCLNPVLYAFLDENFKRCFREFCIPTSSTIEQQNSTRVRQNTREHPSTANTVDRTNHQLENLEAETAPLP", "experiment": "Displacement of [3H-DHM] from µ receptor binding sites of rat cerebral cortex", "conditions": "read-out: Dihydromorphine [3H-DHM] Ki"}, "[2]": {"tested_on": "mice", "design": "method as in PMID 11234340, PMID 12484538, PMID 15652370", "conditions": "series 1, cited from earlier work"}, "[3]": {"tested_on": "mice", "conditions": "compounds obtained previously (series 1 and 2); cited from earlier work"}, "[4]": {"tested_on": "mice", "design": "method as in PMID 11234340, PMID 12484538, PMID 15652370", "conditions": "cited from earlier work; for % Inh. of locomotor activity: series 1"}}, "note": "Like-named read-outs stand apart in the source and are kept apart here."}
{"smiles": "COc1nc(C)cc2c1C(=O)N(CN1CCc3ccccc3C1)C2=O", "note": "[Compound 1M]", "values": [{"measurement": "Ki", "setting": "[1]", "value": "13.8 ± 12.2", "unit": "µM"}, {"measurement": "Thiopental Anesthesia % Prolong.", "setting": "[2]; dose 25 mg/kg", "value": 146.6, "unit": "%"}, {"measurement": "Thiopental Anesthesia % Prolong.", "setting": "[2]; dose 50 mg/kg", "value": 195.1, "unit": "%"}, {"measurement": "ED50, writhing test", "setting": "[3]", "value": 12.7, "unit": "mg/kg"}, {"measurement": "% Inh. of locomotor activity", "setting": "[4]; dose 25 mg/kg", "value": 47.25, "unit": "%"}, {"measurement": "% Inh. of locomotor activity", "setting": "[4]; dose 50 mg/kg", "value": 59.21, "unit": "%"}, {"measurement": "ED50, influence on the locomotor activity", "setting": "[4]; imides described previously (series 1)", "value": 29.5, "unit": "mg/kg"}]}
